Assays:
[1] = tested on: PD1-ss+10aa/Gaussia Luciferase; experiment: Dox-Induced PD1-ss-Gluc Assay; format: cell-based; conditions: 24 hr Dox induction; 293FRT/TO cells; mean; read-out: 24 hr Dox Inducible PD1ssGluc 293FRT/TO: Mean IC50
Summary of the method: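 The cell line was made by transfecting Flp-In 293 T-REx cells with a PD1 signal sequence+10aa–Gaussia luciferase fusion under T-REx control and selecting with hygromycin and blasticidin. Cells were seeded, and next day compound plus doxycycline was added at 37 °C, 5% CO2.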

[2] = tested on: TNFα-FL/Gaussia Luciferase; experiment: Dox Induced TNFα-FL-Gluc Assay; format: cell-based; conditions: for IC50: 24 hr Dox induction, 293FRT/TO cells, mean, read-out: 24 hr Dox Inducible TNFaFLGluc 293FRT/TO: Mean IC50; for 24 hr Dox Inducible TNFaFLGluc 293FRT/TO: TNF/PD1: ratio of TNFaFLGluc IC50 to PD1ssGluc IC50, '<=>' given where both are I.A.
Summary of the method: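 Flp-In 293 T-REx cells stably expressing full-length TNFα (aa 1-233) fused at its C-terminus to Gaussia luciferase under tetracycline-regulated control were plated the day before assay. Compound dilutions in DMSO/media containing doxycycline were added and incubated at 37 °C, 5% CO2. Unspecified stereochemistry denotes stereoisomer mixtures.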

[3] = tested on: HER3-ss+4aa/Gaussia Luciferase; experiment: Dox-Induced Her3-ss-Gluc Assay; format: cell-based; conditions: 24 hr Dox induction; 293FRT/TO cells; mean; read-out: 24 hr Dox Inducible Her3(ss + 4)Gluc 293FRT/TO: Mean IC50
Summary of the method: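 Stable Flp-In 293 T-REx line expressing Gaussia luciferase fused to the HER3 signal sequence plus 4 amino acids under tetracycline-regulated (T-REx) control. Cells plated the day before, then treated with compound dilutions in DMSO/media containing doxycycline and incubated at 37° C., 5% CO2.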

[4] = tested on: IL-2-FL/Gaussia Luciferase; experiment: Dox Induced IL2-FL-Gluc Assay; format: cell-based; conditions: for IC50: 24 hr Dox induction, 293FRT/TO cells, mean, read-out: 24 hr Dox Inducible IL2FLGluc 293FRT/TO: Mean IC50; for 24 hr Dox Inducible IL2FLGluc 293FRT/TO: IL2/PD1: ratio of IL2FLGluc IC50 to PD1ssGluc IC50, '<=>' given where both are I.A.
Summary of the method: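 Flp-In 293 T-REx cells stably carrying doxycycline-inducible full-length IL-2 (aa 1-153) fused at its C-terminus to Gaussia luciferase, selected with hygromycin and blasticidin. Cells were plated the day before, then treated with compounds in DMSO/media containing doxycycline at 37° C, 5% CO2.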

[5] = tested on: multiple myeloma cell line NCI-H929; experiment: H929 Cell Viability Assay; format: cell-based, human; conditions: Homo sapiens, NCI-H929, 48 h, NCI-H929 cells, Celltiter-Glo
Summary of the method: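 NCI-H929 cells, resuspended in RPMI 1640 with 10% FBS and 2 mM glutamine, were treated with compound dilutions in DMSO/media and incubated 48 hours at 37° C, 5% CO2. Viability was read by CellTiter-Glo luminescence. Compounds drawn without stereochemistry were tested as stereoisomer mixtures.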

[6] = tested on: multiple myeloma cell line U266B1; experiment: U266 Cell Viability Assay; format: cell-based, human; conditions: Homo sapiens, U-266, 48 h, U266B1 cells, Celltiter-Glo
Summary of the method: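 Cells grown in RPMI 1640 with 10% FBS, 2 mM glutamine and penicillin/streptomycin were exposed to compound dilutions in DMSO/media for 48 hours at 37° C., 5% CO2. Viability was read by CellTiter-Glo luminescence. Undefined stereocentres mean data for stereoisomer mixtures.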

[7] = Liver Microsome Stability Assay (rat); conditions: rat liver microsomes, with NADPH, 1.0 uM compound
Procedure: (§1) Stability of a compound was assessed in the presence of liver microsomes from various sources—mouse, rat, monkey and human liver microsomes. 1.0 uM compound, 0.4% DMSO in 0.1 M Potassium Phosphate with 1.0 mg/mL liver microsomes, were incubated at 37° C. with or without 1 mM NADPH. The samples were quenched at 0, and 30 minutes.

[8] = Liver Microsome Stability Assay (mouse); conditions: mouse liver microsomes, with NADPH, 1.0 uM compound
Procedure: as §1

[9] = Liver Microsome Stability Assay (human); conditions: human liver microsomes, with NADPH, 1.0 uM compound
Procedure: as §1

[10] = Liver Microsome Stability Assay (monkey); conditions: monkey liver microsomes, with NADPH, 1.0 uM compound
Procedure: as §1

SMILES | IC50 [1] | IC50 [2] | 24 hr Dox Inducible TNFaFLGluc 293FRT/TO: TNF/PD1 [2] | IC50 [3] | IC50 [4] | 24 hr Dox Inducible IL2FLGluc 293FRT/TO: IL2/PD1 [4] | EC50 [5] | EC50 [6] | Liver Microsome Stability (Multiple Species): Rat - % Remaining after 30 min w/NADPH [7] | Liver Microsome Stability (Multiple Species): Mouse - % Remaining after 30 min w/NADPH [8] | Liver Microsome Stability (Multiple Species): Human - % Remaining after 30 min w/NADPH [9] | Liver Microsome Stability (Multiple Species): Monkey - % Remaining after 30 min w/NADPH [10]
O=C(Nc1nc([C@H]2CCCN2c2ccccc2)cs1)c1cccn1CC1COC1 [Compound C84, (R)-1-(oxetan-3-ylmethyl)-N-(4-(1-phenylpyrrolidin-2-yl)thiazol-2-yl)-1H-pyrrole-2-carboxamide] | 4.25 µM | > 25 µM | >5.88 | 6.59 µM | > 25 µM | >5.9 | > 25 µM | > 25 µM | 4.2% | 22.3% | 31.5% | 0.28%
CCc1ccc(N2CCC[C@@H]2c2csc(NC(=O)c3cccn3CC3CCOCC3)n2)nc1 [Compound C85, (R)-N-(4-(1-(5-ethylpyridin-2-yl)pyrrolidin-2-yl)thiazol-2-yl)-1-((tetrahydro-2H-pyran-4-yl)methyl)-1H-pyrrole-2-carboxamide] | 0.126 µM | 1.2 µM | 9.53 | 0.257 µM | 0.279 µM | 2.2 | 6.12 µM | > 25 µM | 11.2% | 21.3% | 1.61% | 0.21%
N#Cc1ccccc1Cn1cccc1C(=O)Nc1nc([C@H]2CCCN2c2ccccc2)cs1 [Compound C86, (R)-1-(2-cyanobenzyl)-N-(4-(1-phenylpyrrolidin-2-yl)thiazol-2-yl)-1H-pyrrole-2-carboxamide] | 2.98 µM | > 25 µM | >8.38 | 1.11 µM | 2.38 µM | 0.8 | > 25 µM | > 25 µM | 20.2% | 43.5% | 27.3% | 15%
C[C@@H](CC#N)Cn1cccc1C(=O)Nc1nc([C@H]2CCCN2c2ccccc2)cs1 [Compound C87, 1-((S)-3-cyano-2-methylpropyl)-N-(4-((R)-1-phenylpyrrolidin-2-yl)thiazol-2-yl)-1H-pyrrole-2-carboxamide] | 0.0784 µM | 0.731 µM | 9.32 | 0.129 µM | 0.238 µM | 3 | 4.05 µM | > 25 µM | 6.85% | 14.2% | 12.8% | 0.21%
C[C@H](CC#N)Cn1cccc1C(=O)Nc1nc([C@H]2CCCN2c2ccccc2)cs1 [Compound C88, 1-((R)-3-cyano-2-methylpropyl)-N-(4-((R)-1-phenylpyrrolidin-2-yl)thiazol-2-yl)-1H-pyrrole-2-carboxamide] | 0.581 µM | 5.93 µM | 10.2 | 0.942 µM | 1.9 µM | 3.3 | 21.8 µM | > 25 µM | 5.31% | 14.8% | 15.7% | 1.91%

From patent US20230286973A1, “PROTEIN SECRETION INHIBITORS” (KEZAR LIFE SCIENCES, priority 2020, published 2023)
